Results on one molecule are retold here after patent US20070275936A1, “Formulations and Treatment Methods” (priority 1998, published 2007).

Assay [1] concerns pentosephosphate shunt (PPS) activity in normal human RBC. The assay can be described thus: PPS flux in whole normal human RBC. The format is cell-based. The source says: The effect of BrEA on pentosephosphate shunt (PPS) activity in normal human RBC was examined using whole cells. Since glucose-6-phosphate dehydrogenase (“G6PD”) is the limiting enzyme of the PPS, PPS flux measurement is considered to better reflect G6PD activity in the whole cell compared to G6PD activity measurement in a cell lysate. […] PPS flux and G6PD activity in the whole RBC depends on a number of factors (the concentration of NADPH, NAD, and ATP, and intracellular pH), which are kept constant if the measurement is performed in the lysate and may vary in the whole RBC. Levels of G6PD activity in cells is considerably above normal basal needs and inhibition of overall G6PD activity might have no or minor consequence on PPS flux in the whole cell. […] A series of experiments were performed using varying amounts of BrEA and PPS flux was measured in unstimulated basal RBC and in methylene-blue (MB)-stimulated RBC.
Different concentrations of BrEA (0.3, 3.5 and 7 micromolar, final) were supplemented to suspensions of washed RBC suspended in RPMI, pH 7.4 at 10% hematocrit, whereby PPS flux was immediately measured without further incubation and without further washings.
In these experiments, different concentrations of BrEA ˜0.8, 8 and 80 micromolar, final) were supplemented to suspensions of washed RBC suspended in RPMI, pH 7.4 at 10% hematocrit. After a 90-min incubation at 37° C. with and without BrEA, PPS flux was measured.

Assay [2] relates to HIV infected patients with chronic diarrhea. The assay can be described thus: Treatment of chronic diarrhea in HIV infected patients. Format: in vivo, human. Conditions: two HIV infected patients, 60 mg s.c. daily for 10 days, during the period of dosing. The procedure: Two HIV infected patients with chronic diarrhea were dosed with BrEA as follows. A BrEA formulation (40 mg/mL BrEA in 25% v/v PEG 300, 12.5% v/v ethanol, 5% v/v benzyl benzoate, ˜57.5% v/v propylene glycol) was delivered subcutaneously. The patients received 60 mg of BrEA in 1.5 mL daily for 10 days. […] After the 10-day dosing period ended, diarrhea resumed. In other patients receiveing oral BrEA, diarrhea also went into remission.

The test system of the next assay is Plasmodium berghei. The assay can be described thus: Lewis rat in vivo parasitemia study. The following applies: Lewis rats.
Another assay has as its system P. falciparum. The assay can be described thus: Intravenous BrEA malaria patient trial. Format: in vivo. The following applies: day 14, two patients. On the procedure:
Response to drug treatment was graded as per World Health Organization criteria (WHO 1973) in infected patients. Evaluation of therapeutic response was determined using the parasitic and fever clearance times. […]
Microscopy. […] Parasitemia was quantified in thin films by counting 2000 red blood cells in clear contiguous fields and finding the proportion that was parasitized. In thick films, parasitemia was quantified by counting parasites against leukocytes. […] Approximately 5000 erythrocytes were counted in clear contiguous fields 24 and 48 h after incubation of blood obtained at each time point and graded for maturity into tiny rings, small rings, large rings, pigmented trophozoites and schizonts. […]
Calculation of Parameters. […] Parasitemia quantification and clinical examination were done once every 6 hours for the first 72 hours, followed by daily assessment of the parameters up to day 7 (168 hrs) and thereafter on day 14.
Blood films were Giemsa-stained and parasitemia quantification was done in thick films by counting 2000 parasites against leukocytes, and the thin films by finding the proportion of infected red blood cells. […]

Each structure is given as a SMILES string.

By inhibition is commonly meant the relative decrease from the control value, in per cent. As to `C[C@]12CC[C@H](O)C[C@@H]1CC[C@@H]1[C@@H]2CC[C@]2(C)C(=O)[C@H](Br)C[C@@H]12` [BrEA, 16α-bromo-3β-hydroxy-5α-androstane-17-one], the PPS flux is 5000 micromoles/hour/ml RBC in assay [1] (0.3 μM, MB stimulated RBC, no incubation, DMSO control 5090); 250 micromoles/hour/ml RBC in assay [1] (0.3 μM, unstimulated RBC, no incubation, DMSO control 270); 4930 micromoles/hour/ml RBC in assay [1] (0.8 μM, MB stimulated, 90-min incubation, average of 3 experiments, DMSO control 4890); 410 micromoles/hour/ml RBC in assay [1] (0.8 μM, unstimulated, 90-min incubation at 37° C., average of 3 experiments, DMSO control 480); 4950 micromoles/hour/ml RBC in assay [1] (3.5 μM, MB stimulated RBC, no incubation, DMSO control 5090); 270 micromoles/hour/ml RBC in assay [1] (3.5 μM, unstimulated RBC, no incubation, DMSO control 270). The PPS flux is listed as 4660 micromoles/hour/ml RBC in assay [1] (7 μM, MB stimulated RBC, no incubation, DMSO control 5090); 295 micromoles/hour/ml RBC in assay [1] (7 μM, unstimulated RBC, no incubation, DMSO control 270); 4430 micromoles/hour/ml RBC in assay [1] (8 μM, MB stimulated, 90-min incubation, average of 3 experiments, DMSO control 4890); 450 micromoles/hour/ml RBC in assay [1] (8 μM, unstimulated, 90-min incubation, average of 3 experiments, DMSO control 480); 3660 micromoles/hour/ml RBC in assay [1] (80 μM, MB stimulated, 90-min incubation, average of 3 experiments, DMSO control 4890); 450 micromoles/hour/ml RBC in assay [1] (80 μM, unstimulated, 90-min incubation, average of 3 experiments, DMSO control 480). Also, the “inhibition of MB-stimulated PPS flux” value in assay [1] (7 μM, no incubation) is “minor inhibition”. The inhibition at 8 µM in assay [1] (Homo sapiens, 1.5 h, 8 micromolar, 90-min incubation, p=0.006 vs control+DMSO, read-out: Inhibition of MB-stimulated PPS flux) turned out to be 10%. Also, the inhibition at 80 µM in assay [1] (Homo sapiens, 1.5 h, 80 micromolar, 90-min incubation, p=0.002 vs control+DMSO, read-out: Inhibition of MB-stimulated PPS flux) amounted to 25%. The “effect on chronic diarrhea” value in assay [2] is on record as “the diarrhea ceased”. Moreover, the “% RBC parasitemia” value turned out to be 7% with Plasmodium berghei (Day 4, high dose 60 mg/kg i.v. days 0-3, saline control 16%); 9% in the assay on Plasmodium berghei (Day 4, low dose 30 mg/kg i.v. days 0-3, saline control 16%); 11% with Plasmodium berghei (Day 11, high dose 60 mg/kg i.v. days 0-3, saline control 36%); 12% in the assay on Plasmodium berghei (Day 11, low dose 30 mg/kg i.v. days 0-3, saline control 36%). In the assay with P. falciparum, this molecule had a parasite clearance rate of 100%.
